{
  "source": "patent US20220332699A1",
  "about": "(SAGE THERAPEUTICS, INC., priority 2019, published 2022)",
  "data": [
    {"target": "CYP46A1 (Homo sapiens, UniProt Q9Y6A2)", "sequence (Q9Y6A2 whole entry)": "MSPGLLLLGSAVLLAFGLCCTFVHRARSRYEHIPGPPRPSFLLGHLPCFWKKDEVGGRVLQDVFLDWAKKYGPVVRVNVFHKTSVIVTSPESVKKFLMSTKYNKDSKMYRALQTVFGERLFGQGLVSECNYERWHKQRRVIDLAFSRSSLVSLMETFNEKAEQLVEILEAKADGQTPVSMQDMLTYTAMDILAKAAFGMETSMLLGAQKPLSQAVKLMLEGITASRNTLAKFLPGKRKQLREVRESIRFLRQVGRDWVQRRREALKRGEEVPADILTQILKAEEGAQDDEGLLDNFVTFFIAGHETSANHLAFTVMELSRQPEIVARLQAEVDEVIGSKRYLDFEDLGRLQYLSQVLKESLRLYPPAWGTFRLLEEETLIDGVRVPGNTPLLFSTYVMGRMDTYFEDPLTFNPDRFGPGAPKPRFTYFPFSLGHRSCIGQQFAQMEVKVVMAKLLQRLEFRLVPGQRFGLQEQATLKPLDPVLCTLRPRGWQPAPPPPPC", "test": "CYP46A1 Enzyme Assay 2 (testosterone substrate, HPLC-MS)", "assay_type": "biochemical", "details": "not given", "outline": "(§1)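 CYP46A1 (5 μM final) with testosterone ([…] final) preincubated with compound 30 min at 37° C, reaction started with NADPH-generating system and run 15 min at 37° C. Quenched in methanol containing diclofenac internal standard; product read by HPLC-MS.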", "units": {"IC50": "nM"}, "values": [
      {"smiles": "N#CC1(c2ccccc2)CCN(C(=O)c2cccnc2-c2ccncn2)CC1", "note": "[Compound A256, 4-phenyl-1-(2-(pyrimidin-4-yl)nicotinoyl)piperidine-4-carbonitrile]", "IC50": "> 1000"}
    ]},
    {"target": "CYP46A1 (Homo sapiens, UniProt Q9Y6A2)", "test": "CYP46A1 Enzyme Assay 2 (testosterone substrate, HPLC-MS)", "assay_type": "biochemical", "details": "read-out: IC50 (CYP46A1 inhibitory activity)", "outline": "as §1", "units": {"IC50": "nM"}, "values": [
      {"smiles": "N#CC1(Cc2ccc(F)c(C(F)(F)F)c2)CCN(C(=O)c2cccnc2-c2ccncc2)CC1", "note": "[Compound A278, 1-([2,4′-bipyridine]-3-carbonyl)-4-(4-fluoro-3-(trifluoromethyl)benzyl)piperidine-4-carbonitrile]", "IC50": "< 100"},
      {"smiles": "CCc1ccc(CC2(C#N)CCN(C(=O)c3cccnc3-c3ccncn3)CC2)cc1", "note": "[Compound A208, 4-(4-ethylbenzyl)-1-(2-(pyrimidin-4-yl)nicotinoyl)piperidine-4-carbonitrile]", "IC50": "< 100"},
      {"smiles": "C[C@@H](c1c(F)cccc1F)C1(C#N)CCN(C(=O)c2cccnc2-c2ccncc2)CC1", "note": "[Compound A246, (R)-1-([2,4′-bipyridine]-3-carbonyl)-4-(1-(2,6-difluorophenyl)ethyl)piperidine-4-carbonitrile]", "IC50": "< 100"},
      {"smiles": "N#CC1(Cc2ccc(C(F)(F)F)cc2)CCN(C(=O)c2cccnc2-c2ccncc2)CC1", "note": "[Compound A285, 1-([2,4′-bipyridine]-3-carbonyl)-4-(4-(trifluoromethyl)benzyl)piperidine-4-carbonitrile]", "IC50": "< 100"},
      {"smiles": "N#CC1(Cc2ccc(C(F)(F)F)nc2)CCN(C(=O)c2cccnc2-c2ccncn2)CC1", "note": "[Compound A222, 1-(2-(pyrimidin-4-yl)nicotinoyl)-4-((6-(trifluoromethyl)pyridin-3-yl)methyl)piperidine-4-carbonitrile]", "IC50": "100 to 1000"},
      {"smiles": "N#CC1(Cc2cccc(Cl)c2)CCN(C(=O)c2cccnc2-c2ccncn2)CC1", "note": "[Compound A210, 4-(3-chlorobenzyl)-1-(2-(pyrimidin-4-yl)nicotinoyl)piperidine-4-carbonitrile]", "IC50": "< 100"},
      {"smiles": "N#CC1(Cc2ccccc2C(F)(F)F)CCN(C(=O)c2cccnc2-c2ccncc2)CC1", "note": "[Compound A275, 1-([2,4′-bipyridine]-3-carbonyl)-4-(2-(trifluoromethyl)benzyl)piperidine-4-carbonitrile]", "IC50": "< 100"},
      {"smiles": "N#CC1(CC2CC2)CCN(C(=O)c2cccnc2-c2ccncn2)CC1", "note": "[Compound A58, 4-(cyclopropylmethyl)-1-(2-(pyrimidin-4-yl)nicotinoyl)piperidine-4-carbonitrile]", "IC50": "100 to 1000"},
      {"smiles": "N#CC1(Cc2ccc(F)c(C(F)(F)F)c2)CCN(C(=O)c2cccnc2-c2ccncn2)CC1", "note": "[Compound A267, 4-(4-fluoro-3-(trifluoromethyl)benzyl)-1-(2-(pyrimidin-4-yl)nicotinoyl)piperidine-4-carbonitrile]", "IC50": "< 100"},
      {"smiles": "N#CC1(Cc2cccc(F)c2)CCN(C(=O)c2cccnc2-c2ccncc2)CC1", "note": "[Compound A13, 1-{[2,4′-bipyridine]-3-carbonyl}-4-[(3-fluorophenyl)methyl]piperidine-4-carbonitrile]", "IC50": "< 100"},
      {"smiles": "CC(c1cc(F)cc(F)c1)C1(C#N)CCN(C(=O)c2cccnc2-c2ccncn2)CC1", "note": "(stereo in doubt) [Compound A258, (R)-4-(1-(3,5-difluorophenyl)ethyl)-1-(2-(pyrimidin-4-yl)nicotinoyl)piperidine-4-carbonitrile]", "IC50": "< 100"},
      {"smiles": "N#CC1(Cc2c(F)cc(F)cc2F)CCN(C(=O)c2cccnc2-c2ccncc2)CC1", "note": "[Compound A272, 1-([2,4′-bipyridine]-3-carbonyl)-4-(2,4,6-trifluorobenzyl)piperidine-4-carbonitrile]", "IC50": "< 100"},
      {"smiles": "CC(c1c(F)cc(F)cc1F)C1(C#N)CCN(C(=O)c2cccnc2-c2ccncn2)CC1", "note": "(stereo in doubt) [Compound A271, (R)-1-(2-(pyrimidin-4-yl)nicotinoyl)-4-(1-(2,4,6-trifluorophenyl)ethyl)piperidine-4-carbonitrile]", "IC50": "< 100"},
      {"smiles": "N#CC1(Cc2ccccc2F)CCN(C(=O)c2cccnc2-c2ccncc2)CC1", "note": "[Compound A12, 1-{[2,4′-bipyridine]-3-carbonyl}-4-[(2-fluorophenyl)methyl]piperidine-4-carbonitrile]", "IC50": "< 100"},
      {"smiles": "C[C@@H]1CN(C(=O)c2cccnc2-c2ccncn2)CC[C@@]1(C#N)Cc1ccc(F)cc1", "note": "[Compound A247, (3S,4S)-4-(4-fluorobenzyl)-3-methyl-1-(2-(pyrimidin-4-yl)nicotinoyl)piperidine-4-carbonitrile]", "IC50": "< 100"},
      {"smiles": "COc1ccc(CC2(C#N)CCN(C(=O)c3cccnc3-c3ccncn3)CC2)cc1", "note": "[Compound A63, 4-(4-methoxybenzyl)-1-(2-(pyrimidin-4-yl)nicotinoyl)piperidine-4-carbonitrile]", "IC50": "< 100"},
      {"smiles": "N#CC1(Cc2ccc(F)cc2)CCN(C(=O)c2cccnc2-c2cncnc2)CC1", "note": "[Compound A66, 4-(4-fluorobenzyl)-1-(2-(pyrimidin-5-yl)nicotinoyl)piperidine-4-carbonitrile]", "IC50": "100 to 1000"},
      {"smiles": "N#C[C@]1(Cc2ccc(F)cc2)CCN(C(=O)c2cccnc2-c2ccncn2)C1", "note": "[Compound A235, (R)-3-(4-fluorobenzyl)-1-(2-(pyrimidin-4-yl)nicotinoyl)pyrrolidine-3-carbonitrile]", "IC50": "> 1000"},
      {"smiles": "N#CC1(Cc2cccnc2)CCN(C(=O)c2cccnc2-c2ccncc2)CC1", "note": "[Compound A72, 1-{[2,4′-bipyridine]-3-carbonyl}-4-[(pyridin-3-yl)methyl]piperidine-4-carbonitrile]", "IC50": "100 to 1000"},
      {"smiles": "N#CC1(Cc2cc(C(F)(F)F)ccc2F)CCN(C(=O)c2cccnc2-c2ccncn2)CC1", "note": "[Compound A273, 4-(2-fluoro-5-(trifluoromethyl)benzyl)-1-(2-(pyrimidin-4-yl)nicotinoyl)piperidine-4-carbonitrile]", "IC50": "< 100"},
      {"smiles": "N#C[C@]1(Cc2ccc(F)cc2)[C@@H]2CC[C@H]1CN(C(=O)c1cccnc1-c1ccncn1)C2", "note": "[Compound A253, (1R,5S,8r)-8-(4-fluorobenzyl)-3-(2-(pyrimidin-4-yl)nicotinoyl)-3-azabicyclo[3.2.1]octane-8-carbonitrile]", "IC50": "> 1000"},
      {"smiles": "N#CC1(Cc2c(F)cc(C(F)(F)F)cc2F)CCN(C(=O)c2cccnc2-c2ccncn2)CC1", "note": "[Compound A281, 4-(2,6-difluoro-4-(trifluoromethyl)benzyl)-1-(2-(pyrimidin-4-yl)nicotinoyl)piperidine-4-carbonitrile]", "IC50": "< 100"},
      {"smiles": "C[C@H]1CN(C(=O)c2cccnc2-c2ccncn2)CC[C@]1(C#N)Cc1ccc(F)cc1", "note": "[Compound A248, (3R,4R)-4-(4-fluorobenzyl)-3-methyl-1-(2-(pyrimidin-4-yl)nicotinoyl)piperidine-4-carbonitrile]", "IC50": "< 100"},
      {"smiles": "CC[C@@H](c1ccc(F)cc1)C1(C#N)CCN(C(=O)c2cccnc2-c2ccncn2)CC1", "note": "[Compound A216, (S)-4-(1-(4-fluorophenyl)propyl)-1-(2-(pyrimidin-4-yl)nicotinoyl)piperidine-4-carbonitrile]", "IC50": "< 100"},
      {"smiles": "N#C[C@@]1(Cc2ccc(F)cc2)CCN(C(=O)c2cccnc2-c2ccncn2)C1", "note": "[Compound A236, (S)-3-(4-fluorobenzyl)-1-(2-(pyrimidin-4-yl)nicotinoyl)pyrrolidine-3-carbonitrile]", "IC50": "> 1000"},
      {"smiles": "N#CC1(Cc2cccc(C3CC3)c2)CCN(C(=O)c2cccnc2-c2ccncn2)CC1", "note": "[Compound A218, 4-(3-cyclopropylbenzyl)-1-(2-(pyrimidin-4-yl)nicotinoyl)piperidine-4-carbonitrile]", "IC50": "< 100"},
      {"smiles": "N#CC1(Cc2ccc(OC(F)(F)F)cc2)CCN(C(=O)c2cccnc2-c2ccncc2)CC1", "note": "[Compound A10, 1-([2,4′-bipyridine]-3-carbonyl)-4-(4-(trifluoromethoxy)benzyl)piperidine-4-carbonitrile]", "IC50": "< 100"}
    ]}
  ]
}
